From patent US4639466A, “3',6-diisopentenyl-2',4'-dihydroxy-5,7-dimethoxy-isoflavan and related compounds useful as anxiolytic agents and avermectin antidotes” (Merck & Co., Inc., priority 1984, dated 1987)
Like-named read-outs stand apart in the source and are kept apart here.

Legend:
benzodiazepine receptors [1] = assay: Benzodiazepine receptor binding assay (BARIN; effect on ^3 H-diazepam binding)
C. elegans = C. elegans motility assay (effect on avermectin activity, % active worms); format: in vivo
Source text: 1. The C. elegans motility assay:
The procedures for the C. elegans motility assay is described in S. S. Pong et al., J. NuroChem. 34, 351-358, 1980.

benzodiazepine receptors [2] = settings: known from prior art; cited from earlier work

COc1cc2c(c(OC)c1CC=C(C)C)CC(c1ccc(O)c(CC=C(C)C)c1O)CO2 (centres unmarked) [3',6-diisopentenyl-2',4'-dihydroxy-5,7-dimethoxyisoflavan]
effect on benzodiazepine binding (benzodiazepine receptors [1]): stimulate the benzodiazepine-binding | EC50 (benzodiazepine receptors [1]; active compound (12 mg, k'=8) isolated from CH2 Cl2 extract of G. uralensis by HPLC): 2 to 3 µg/mL | EC50 for stimulation of benzodiazepine-binding (benzodiazepine receptors [1]; stimulation of binding): 3 µg/mL | antagonism of avermectin in the C. elegans motility assay (C. elegans; in vivo): potent antagonist of avermectin | % active worms (C. elegans; isoflavan 5 μg/ml, avermectin 0 μg/ml): 97% | % active worms (C. elegans; isoflavan 5 μg/ml, avermectin 0.156 μg/ml): 60% | % active worms (C. elegans; isoflavan 5 μg/ml, avermectin 0.313 μg/ml): 60% | % active worms (C. elegans; isoflavan 5 μg/ml, avermectin 0.625 μg/ml): 77% | % active worms (C. elegans; isoflavan 25 μg/ml, avermectin 0 μg/ml): 95% | % active worms (C. elegans; isoflavan 25 μg/ml, avermectin 0.156 μg/ml): 88% | % active worms (C. elegans; isoflavan 25 μg/ml, avermectin 0.313 μg/ml): 65% | % active worms (C. elegans; isoflavan 25 μg/ml, avermectin 0.625 μg/ml): 91% | blocking the highest dose of avermectin (C. elegans; lowest dose level 5 μg/ml, avermectin 0.625 μg/ml): almost fully effective

CC[C@H](C)[C@H]1O[C@]2(C=C[C@@H]1C)C[C@@H]1C[C@@H](C/C=C(\C)[C@@H](O[C@H]3C[C@H](OC)[C@@H](O[C@H]4C[C@H](OC)[C@@H](O)[C@H](C)O4)[C@H](C)O3)[C@@H](C)/C=C/C=C3\CO[C@@H]4[C@H](O)C(C)=C[C@@H](C(=O)O1)[C@]34O)O2 [avermectin]
% active worms (C. elegans; isoflavan 0 μg/ml, avermectin 0.156 μg/ml (avermectin alone)): 85% | % active worms (C. elegans; isoflavan 0 μg/ml, avermectin 0.313 μg/ml (avermectin alone)): 20% | % active worms (C. elegans; isoflavan 0 μg/ml, avermectin 0.625 μg/ml (avermectin alone)): 4%

CCCCNc1c(C(=O)OCC)c(C)nc2c1cnn2CC [tracazolate]
effect on benzodiazepine binding (benzodiazepine receptors [2]): stimulates benzodiazepine binding
